pIC50: −log10 of the molar value. Read-outs that look alike come from different tables or passages of the source.
Columns and labels:
[1] = test system: normal diploid fibroblasts BJ; assay: In vitro cytotoxic activity (Calcein AM), BJ; format: cell-based, human; details: 72 hours, read-out: Cell line tested/IC50 (μmol/L) BJ
Text: (§1) Because toxic compounds negatively influence metabolic processes of cells, many standard cytotoxicity assays are based on measurement of metabolisation rate of various artificial substrates. Resulting product is then quantified, for example, by means of spectrometry. The assays can be easily modified for use in 96-well plates. For evaluation of cytotoxicity of the […] of this invention, a microtiter assay based on quantification of metabolisation of Calcein AM was used. The assay is widely used in drug screening programs and in chemosensitivity testing. In live cells, Calcein AM is enzymatically hydrolysed and accumulation of resulting calcein is manifested by green fluorescence.
(§2) The following human cell lines were used for routine screening of the compounds: normal diploid fibroblasts BJ, T-lymphoblastic leukemia cell line CEM, promyelocytic leukemia cell line HL-60, erytroid leukemia cell line K-562, breast carcinoma cell line MCF-7, osteosarcoma cell line HOS and melanoma cell line G-361. The cells were maintained in Nunc/Corning 80 cm^2 plastic tissue culture flasks and cultured in cell culture medium (DMEM with 5 g/l glucose, 2 mM glutamine, 100 U/ml penicillin, 100 mmg/ml streptomycin, 10% fetal calf serum and sodium bicarbonate). The cell suspensions were prepared and diluted according to the particular cell type and the expected target cell density (2.500-30.000 cells per well based on cell growth characteristics) and pipetted (80 μl) into 96-well plates. Inoculates were allowed a pre-incubation period of 24 hours at 37° C. and 5% CO2 for stabilization. Tested compound was added in total volume of 20 μl of water at time zero. Usually, test compound was evaluated at six 3-fold dilutions. In routine testing, the highest concentration tested was 100 μM, but it could have been adjusted because of limited solubility of a compound. All drug concentrations were tested in triplicates.
(§3) Incubations of cells with the test compounds lasted for 72 hours at 37° C., in 5% CO2 atmosphere and 100% humidity. At the end of incubation period Calcein AM in PBS was added into final concentration of 1 μg/ml. After another 1 hour of incubation fluorescence (FD) was measured with the Labsystem FIA Reader Fluoroscan Ascent (UK). Growth inhibition (GI) was estimated using the following equitation: GI=(mean FDdrug exposed wells−mean FDblank)/(mean FDcontrol wells−mean FDblank)×100%. The GI50 value, the drug concentration causing 50% reduction of Calcein AM conversion, was calculated from the obtained dose response curves.

[2] = test system: excised wheat leaf tips (Triticum aestivum cv. Hereward); assay: Senescence inhibition on winter wheat leaf segments (retention of chlorophyll); format: in vivo; details: 10^−4 mol/L; 96 hours in the dark; activity of kinetin set at 100%
Method: Seeds of winter wheat, Triticum aestivum cv. Hereward, were washed under running water for 24 hours and then sown on vermiculite soaked with Knop's solution. They were placed in the grown chamber at 25° C. with a 16/8 hours light period at […]. After 7 days, the first leaf was fully developed and the second leaf had started to grow. A tip section of the first leaf, approximately 35 mm long, was removed from 5 seedlings and trimmed slightly to a combined weight of 100 mg. The basal ends of the five leaf tips were placed in the wells of a microtiter polystyrene plate containing […] of a cytokinin solution each. The entire plate was inserted into a plastic box lined with paper tissues soaked in distilled water to prevent leaf sections from drying out. After 96 hours incubation in the dark at 25° C., the leaves were removed and chlorophyll extracted by heating at 80 C for 10 min in 5 ml of 80% ethanol (v/v). The sample volume was then restored to 5 ml by the addition of 80% ethanol (v/v). The absorbance of the extract was recorded at 665 nm. In addition, chlorophyll extracts from fresh leaves and leaf tips incubated in deionized water were measured. From the obtained data, the concentration with highest activity was selected for each compound tested. Relative activity of the compound at this concentration was calculated (see Table 6 below). The activity obtained for 10^−4 M kinetin (Kin) was set as 100%. The values shown are means of five replicates and the whole experiment was repeated twice.
The compounds to be tested were dissolved in dimethylsulfoxide (DMSO) and the solution brought up to 10^−3 M with distilled water. […] As summarized in Table 6 below, the presence of C-8 substitutent was beneficial and led to increase of antisenescent properties.

[3] = test system: erytroid leukemia cell line K-562; assay: In vitro cytotoxic activity (Calcein AM), K-562; format: cell-based, human; details: read-out: Cell line tested/IC50 (μmol/L) K-562
Text: as §1, §2, §3

[4] = test system: Human diploid fibroblast BJ; assay: In vitro cytotoxic activity (MTT); format: cell-based; details: 72 hours incubation; concentration causing 20% decrease in mitochondrial dehydrogenase activity
Method: MTT (metabolic tetrazolium toxicity) assay is a standard colorimetric assay for evaluation of cytotoxicity. Mitochondrial dehydrogenase activity converts yellow MTT into violet formazan which is measured by means of spectrometry.
Human diploid fibroblast BJ (passage 18-22) were seeded into 96-well plate (5.000 cells per well). After 6 hours cultivation medium (DMEM with 5 g/l glucose, 2 mM glutamine, 100 U/ml penicillin, 100 mmg/ml streptomycin, 10% fetal calf serum and sodium bicarbonate) was replaced with the cultivation medium containing test compounds in concentration range of 0-200 µM. Highest concentration was adjusted if the solubility of the compound was limiting. Every concentration was tested in pentaplicate. MTT was added to the cells after 72 hours incubation (final concentration 0.5 mg/ml) and incubation continued for another 3 hours. MTT was solubilised by DMSO and absorbance at 570 nm was measured. Growth inhibition (GI) was estimated using the following equitation: GI=(mean A drug exposed wells−mean Ablank/mean Acontrol wells−mean Ablank)×100%. The GI20 value, the drug concentration causing 20% decrease in mitochondrial dehydrogenase activity, was calculated from the obtained dose response curves.

[5] = test system: T-lymphoblastic leukemia cell line CEM; assay: In vitro cytotoxic activity (Calcein AM), CEM; format: cell-based, human; details: 72 hours, read-out: Cell line tested/IC50 (μmol/L) CEM
Text: as §1, §2, §3

[6] = test system: breast carcinoma cell line MCF-7; assay: In vitro cytotoxic activity (Calcein AM), MCF-7; format: cell-based, human; details: read-out: Cell line tested/IC50 (μmol/L) MCF7
Text: as §1, §2, §3

[7] = test system: cytokinin-dependent tobacco callus Nicotiana tabacum L. cv. Wisconsin 38; assay: Plant cell division: growth of cytokinin-dependent tobacco callus; format: cell-based; details: for Activity (%); (s.d.): relative activity at concentration with highest activity, 10^−6 M kinetin set at 100%; for Concentration with highest activity (mol/l): tobacco callus fresh weight increase after four weeks, tested 10^−8 M to 10^−4 M
Method: Cytokinin-dependent tobacco callus Nicotiana tabacum L. cv. Wisconsin 38 was maintained at 25° C. in darkness on modified MS medium, containing 4 μmol/l nicotinic acid, 2.4 μmol/l pyridoxine hydrochloride, 1.2 μmol/l thiamine, 26.6 μmol/l glycine, 1.37 μmol/l glutamine, 1.8 μmol/l myo-inositol, 30 g/l of sucrose, 8 g/l of agar, 5.37 μmol/l NAA and 0.5 μmol/l BAP. Subcultivation was carried out every three weeks. Fourteen days before the bioassay, the callus tissue was transferred to the media without BAP. Biological activity was determined from the increase in fresh callus weight after four weeks of cultivation. Five replicates were prepared for each cytokinin concentration and the entire test was repeated twice. From the obtained data, the concentration with highest activity was selected for each compound tested. Relative activity at this concentration was calculated (see Table 17 below). The activity obtained for 10^−6 M kinetin (Kin) was set as 100%.
The cytokinins to be tested were dissolved in dimethylsulfoxide (DMSO) and the solution brought up to 10^−3M with distilled water.

[8] = test system: osteosarcoma cell line HOS; assay: In vitro cytotoxic activity (Calcein AM), HOS; format: cell-based, human; details: 72 hours, read-out: Cell line tested/IC50 (μmol/L) HOS
Text: as §1, §2, §3

melanoma cell line G-361 = assay: In vitro cytotoxic activity (Calcein AM), G-361; format: cell-based, human; details: read-out: Cell line tested/IC50 (μmol/L) G-361
Text: as §1, §2, §3

[9] = test system: Salmonella typhimurium histidien auxotrophs TA98 and TA100; assay: Ames test; format: cell-based; details: 2.5 to 5000 μg/plate; presence and absence of Aroclor-induced rat liver S9
In short: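 Strains TA98 and TA100 exposed to compounds in DMSO at 2.5, 5.0, 15, 50, 500, 1500 and 5000 μg/plate following standard Ames/Maron protocols.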

With `Fc1cccc(CNc2ncnc3c2nc(Cl)n3C2CCCCO2)c1` (centres unmarked) [Compound 7] the pIC50 [1] was under 4.00, the “Activity (%) (s.d.), retention of chlorophyll” value (shortened to “Activity (%) (s.d.), retention”) [2] was 110 (±2) % and the pIC50 ([3]; 72 hours) was under 4.30. For the same compound, the “GI20” value [4] was over 200 µM, the pIC50 [5] was under 4.00 and the pIC50 ([6]; 72 hours) was under 4.00. The “Activity (%); (s.d.)” value [7] was 114 (±5) %, the “Concentration with highest activity (mol/l)” value (from here on “Concentration”) [7] was 10^−6-10^−4 mol/l and the pIC50 [8] was under 4.00. For the same compound, the pIC50 (melanoma cell line G-361; 72 hours) was under 4.00.

`COc1cccc(CNc2ncnc3c2nc(Br)n3C2CCCCO2)c1` (centres unmarked) [Compound 28] was tested, and the pIC50 [1] was under 4.30, the “Activity (%) (s.d.), retention” value [2] was 126 (±7) % and the pIC50 ([3]; 72 hours) was under 4.30. The “GI20” value [4] was over 100 µM, the pIC50 [5] was under 4.30 and the pIC50 ([6]; 72 hours) was under 4.30. For the same compound, the “Activity (%); (s.d.)” value [7] was 107 (±2) %, the “Concentration” value [7] was 10^−6-10^−4 mol/l and the pIC50 [8] was under 4.30. It also gave a pIC50 (melanoma cell line G-361; 72 hours) of under 4.30.

For `COc1cccc(CNc2ncnc3c2nc(Cl)n3C2CCCCO2)c1` (centres unmarked) [Compound 8], the pIC50 [1] was under 4.00, the “Activity (%) (s.d.), retention” value [2] was 125 (±6) % and the pIC50 ([3]; 72 hours) was under 4.00. The “GI20” value [4] was over 200 µM, the pIC50 [5] was under 4.00 and the pIC50 ([6]; 72 hours) was under 4.00. For the same compound, the “Activity (%); (s.d.)” value [7] was 119 (±7) %, the “Concentration” value [7] was 10^−6-10^−4 mol/l and the pIC50 [8] was under 4.00. It also gave a pIC50 (melanoma cell line G-361; 72 hours) of under 4.00.

`COc1cccc(CNc2ncnc3c2nc(SC)n3C2CCCCO2)c1` (centres unmarked) [Compound 150] was tested, and the pIC50 [1] was under 4.30, the pIC50 ([3]; 72 hours) was under 4.30 and the “GI20” value [4] was over 100 µM. The pIC50 [5] was under 4.30, the pIC50 ([6]; 72 hours) was under 4.30 and the mutagenic response [9] was “no positive mutagenic responses”. The “Activity (%); (s.d.)” value [7] was 105 (±2) %, the “Concentration” value [7] was 10^−6-10^−5 mol/l and the pIC50 [8] was under 4.30. The pIC50 (melanoma cell line G-361; 72 hours) was under 4.30.

`CSc1nc2c(NCC=C(C)C)ncnc2n1C1CCCCO1` (centres unmarked) [Compound 147] was tested, and the pIC50 [1] was under 4.30, the pIC50 ([3]; 72 hours) was under 4.30 and the “GI20” value [4] was over 100 µM. For the same compound, the pIC50 [5] was under 4.30, the pIC50 ([6]; 72 hours) was under 4.30 and the mutagenic response [9] was “no positive mutagenic responses”. For the same compound, the “Activity (%); (s.d.)” value [7] was 112 (±2) %, the “Concentration” value [7] was 10^−6-10^−4 mol/l and the pIC50 [8] was under 4.30. For the same compound, the pIC50 (melanoma cell line G-361; 72 hours) was under 4.30.

With `COc1nc2c(NCC=C(C)CO)ncnc2n1C1CCCO1` (centres unmarked) [Compound 208] the pIC50 [1] was under 4.30, the pIC50 ([3]; 72 hours) was under 4.30 and the “GI20” value [4] was over 100 µM. For the same compound, the pIC50 [5] was under 4.30, the pIC50 ([6]; 72 hours) was under 4.30 and the mutagenic response [9] was “no positive mutagenic responses”. For the same compound, the “Activity (%); (s.d.)” value [7] was 119 (±7) %, the “Concentration” value [7] was 10^−6-10^−4 mol/l and the pIC50 [8] was under 4.30. For the same compound, the pIC50 (melanoma cell line G-361; 72 hours) was under 4.30.

`CSc1nc2c(NCc3cccc(O)c3)ncnc2n1C1CCCCO1` (centres unmarked) [Compound 149] was tested, and the pIC50 [1] was under 4.30, the pIC50 ([3]; 72 hours) was under 4.30 and the “GI20” value [4] was over 100 µM. The pIC50 [5] was under 4.30, the pIC50 ([6]; 72 hours) was under 4.30 and the mutagenic response [9] was “no positive mutagenic responses”. The “Activity (%); (s.d.)” value [7] was 107 (±1) %, the “Concentration” value [7] was 10^−6-10^−4 mol/l and the pIC50 [8] was under 4.30. The pIC50 (melanoma cell line G-361; 72 hours) was under 4.30.

`COc1nc2c(NC/C=C(\C)CO)ncnc2n1C1CCCCO1` (centres unmarked) [Compound 126, (E)-6-(4-Hydroxy-3-methylbut-2-en-1-ylamino)-8-methoxy-9-(tetrahydropyran-2-yl)-9H-purine] was tested, and the pIC50 ([1]; Homo sapiens, Fibroblast) was under 4.30, the pIC50 ([3]; Homo sapiens, K562, 72 hours) was under 4.30 and the “GI20” value [4] was over 100 µM. For the same compound, the pIC50 ([5]; Homo sapiens) was under 4.30, the pIC50 ([6]; Homo sapiens, MCF7, 72 hours) was under 4.30 and the mutagenic response [9] was “no positive mutagenic responses”. For the same compound, the “Activity (%); (s.d.)” value [7] was 116 (±6) %, the pIC50 ([8]; Homo sapiens) was under 4.30 and the pIC50 (melanoma cell line G-361; Homo sapiens, G-361, 72 hours) was under 4.30.

For `COc1nc2c(NCc3cccc(O)c3)ncnc2n1C1CCCCO1` (centres unmarked) [Compound 129], the pIC50 [1] was under 4.30, the pIC50 ([3]; 72 hours) was under 4.30 and the “GI20” value [4] was over 100 µM. The pIC50 [5] was under 4.30, the pIC50 ([6]; 72 hours) was under 4.30 and the mutagenic response [9] was “no positive mutagenic responses”. The “Activity (%); (s.d.)” value [7] was 111 (±4) %, the “Concentration” value [7] was 10^−6-10^−5 mol/l and the pIC50 [8] was under 4.30. The pIC50 (melanoma cell line G-361; 72 hours) was under 4.30.

Source: patent US10093675B2, “6,8-disubstituted-9-(heterocyclyl)purines, compositions containing these derivatives and their use in cosmetic and medicinal applications” (USTAV EXPERIMENTALNI BOTANIKY AV CR, V.V.I., priority 2014, dated 2018)
